Values of other authors, collected in PubChem BioAssay AID1259409 (Chemical Carcinogenesis Research Information System (CCRIS), 2018).

Test system: rodent chemically induced tumor inhibition, incidence and multiplicity
Test: CCRIS tumor inhibitor studies
Conditions: for outcome: Carcinogen: 7,12-Dimethylbenz[a]anthracene, 57-97-6 and 12-O-Tetradecanoylphorbol-13-acetate, Dose [Inhibitor]: 50 ug/ml in acetone by topical application starting on the 16th wk and continuing to end of study (study duration: 30 wk, Route [Inhibitor]: Skin, Species: Mouse, Strain/Sex: Albino/Sex not given, Target Tissue: Type of Lesion: Skin, Dose [Carcinogen]: DMBA in acetone, 100 ug/ml, single topical dose, TPA in acetone, 10 ug/ml, topical administration twice a wk for 15 wk

CC1=C(/C=C/C(C)=C/C=C/C(C)=C\C(=O)O)C(C)(C)CCC1
tumour outcome (control, treated, inhibition, significance) (Carcinogen: 1,2-DIMETHYLHYDRAZINE, 540-73-8, Dose [Inhibitor]: 67 µM/G DIET, Route [Inhibitor]: ORAL, Species: RAT, Strain/Sex: SPRAGUE-DAWLEY/MALE, Target Tissue: Type of Lesion: COLON: TUMOR, Dose [Carcinogen]: 30 MG/KG BW 1/WK FOR 5 WK, Promoter: NONE USED): 20/20 (100%), 8/20 (40%), 60%, not calculated | tumour outcome (control, treated, inhibition, significance) (Carcinogen: 1,2-DIMETHYLHYDRAZINE, 5400-73-8, Dose [Inhibitor]: 67 UG/G DIET FED SIMULTANEOUSLY DURING CARCINOGEN TREATMENT (STUDY DURATION: 46 WK), Route [Inhibitor]: ORAL, Species: RAT, Strain/Sex: WISTAR/FEMALE, Target Tissue: Type of Lesion: COLON: ADENOCARCINOMA, Dose [Carcinogen]: 15 MG/KG BW/WK FOR 28 WK, Promoter: NONE USED): 8/12 (67%), 5/10 (50%), 25%, not significant | tumour outcome (control, treated, inhibition, significance) (Carcinogen: 1,2-DIMETHYLHYDRAZINE, 5400-73-8, Dose [Inhibitor]: 67 UG/G DIET FED SIMULTANEOUSLY DURING CARCINOGEN TREATMENT (STUDY DURATION: 46 WK), Route [Inhibitor]: ORAL, Species: RAT, Strain/Sex: WISTAR/FEMALE, Target Tissue: Type of Lesion: SMALL INTESTINE: ADENOCARCINOMA, Dose [Carcinogen]: 15 MG/KG BW/WK FOR 28 WK, Promoter: NONE USED): 8/12 (67%), 9/10 (90%), -34%, not significant | tumour outcome (control, treated, inhibition, significance) (Carcinogen: 3-METHYLCHOLANTHRENE, 56-49-5, Dose [Inhibitor]: 3 MG IN 0.1 ML ACETONE STARTING 2 WK AFTER START OF CARCINOGEN TREATMENT AND APPLIED 2/WK DURING WK 3-5 OF THE STUDY AND, Route [Inhibitor]: DERMAL, Species: MOUSE, Strain/Sex: SWISS/FEMALE, Target Tissue: Type of Lesion: SKIN: CARCINOMA, Dose [Carcinogen]: 0.1 ML OF 0.3% DISSOLVED IN ACETONE APPLIED 2/WK FIRST 5 WK THEN 1/WK FOR WK 6-9 FOLLOWED BY NO FURTHER TREATMENT THROUG, Promoter: NONE USED): 5/19 (26%), 2/20 (10%), 62%, not calculated | tumour outcome (control, treated, inhibition, significance) (Carcinogen: 3-METHYLCHOLANTHRENE, 56-49-5, Dose [Inhibitor]: 3 MG IN 0.1 ML ACETONE STARTING 2 WK AFTER START OF CARCINOGEN TREATMENT AND APPLIED 2/WK DURING WK 3-5 OF THE STUDY AND, Route [Inhibitor]: DERMAL, Species: MOUSE, Strain/Sex: SWISS/FEMALE, Target Tissue: Type of Lesion: SKIN: PAPILLOMA, Dose [Carcinogen]: 0.1 ML OF 0.3% DISSOLVED IN ACETONE APPLIED 2/WK FIRST 5 WK THEN 1/WK FOR WK 6-9 FOLLOWED BY NO FURTHER TREATMENT THROUG, Promoter: NONE USED): 9/19 (47%), 4/20 (20%), 57%, not calculated | outcome (16561-29-8, 16561-29-8): malignant lesions: 4/20 (20%), 4/20 (20%), not significant | outcome (16561-29-8, 16561-29-8, Promoter: None): malignant lesions: 5/20 (20%), 4/20 (20%), not significant | tumour outcome (control, treated, inhibition, significance) (Carcinogen: AZOXYMETHANE, 25843-45-2, Dose [Inhibitor]: 50 MG/KG DIET DAILY STARTING SIMULTANEOUSLY WITH CARCINOGEN TREATMENT AND CONTINUING THROUGH END OF STUDY (STUDY DURATIO, Route [Inhibitor]: ORAL, Species: RAT, Strain/Sex: SPRAGUE-DAWLEY/MALE, Target Tissue: Type of Lesion: LARGE INTESTINE: MALIGNANT TUMOR, Dose [Carcinogen]: 8 MG/KG BW 1/WK FOR 8 WK, Promoter: NONE USED): 90%, 90%, 0%, not significant | tumour outcome (control, treated, inhibition, significance) (Carcinogen: AZOXYMETHANE, 25843-45-2, Dose [Inhibitor]: 50 MG/KG DIET DAILY STARTING SIMULTANEOUSLY WITH CARCINOGEN TREATMENT AND CONTINUING THROUGH END OF STUDY (STUDY DURATIO, Route [Inhibitor]: ORAL, Species: RAT, Strain/Sex: SPRAGUE-DAWLEY/MALE, Target Tissue: Type of Lesion: SMALL INTESTINE: MALIGNANT TUMOR, Dose [Carcinogen]: 8 MG/KG BW 1/WK FOR 8 WK, Promoter: NONE USED): 90%, 83%, 8%, not significant | tumour outcome (control, treated, inhibition, significance) (Carcinogen: AZOXYMETHANE, 25843-45-2, Dose [Inhibitor]: 50 MG/KG IN DIET DAILY FOR 26 WK STARTING SIMULTANEOUSLY WITH CARCINOGEN TREATMENT (STUDY DURATION: 26 WK), Route [Inhibitor]: ORAL, Species: RAT, Strain/Sex: SPRAGUE-DAWLEY/MALE, Target Tissue: Type of Lesion: LARGE INTESTINE: MALIGNANT TUMOR, Dose [Carcinogen]: 8 MG/KG BW 1/WK FOR 8 WK, Promoter: NONE USED): 90%, 90%, 0%, not significant | tumour outcome (control, treated, inhibition, significance) (Carcinogen: AZOXYMETHANE, 25843-45-2, Dose [Inhibitor]: 50 MG/KG IN DIET DAILY FOR 26 WK STARTING SIMULTANEOUSLY WITH CARCINOGEN TREATMENT (STUDY DURATION: 26 WK), Route [Inhibitor]: ORAL, Species: RAT, Strain/Sex: SPRAGUE-DAWLEY/MALE, Target Tissue: Type of Lesion: SMALL INTESTINE: TUMOR, Dose [Carcinogen]: 8 MG/KG BW 1/WK FOR 8 WK, Promoter: NONE USED): 90%, 83%, 8%, not significant | tumour outcome (control, treated, inhibition, significance) (Carcinogen: BENZO[A]PYENE, 50-32-8, Dose [Inhibitor]: 17 NMOL 2/WK 0.5 HR BEFORE EACH PROMOTER APPLICATION FOR 24 WK STARTING 7 D AFTER CARCINOGEN APPLICATION (STUDY DURATION, Route [Inhibitor]: DERMAL, Species: MOUSE, Strain/Sex: SENCAR, Target Tissue: Type of Lesion: SKIN: PAPILLOMA, Dose [Carcinogen]: 400 NMOL ONCE, Promoter: ANTHRALIN, 1143-38-0): 73%, 83%, -14%, not significant | tumour outcome (control, treated, inhibition, significance) (Carcinogen: BENZO[A]PYENE, 50-32-8, Dose [Inhibitor]: 34 NMOL ONCE 0.5 HR BEFORE CARCINOGEN APPLICATION (STUDY DURATION: 25 WK), Route [Inhibitor]: DERMAL, Species: MOUSE, Strain/Sex: CD-1/FEMALE, Target Tissue: Type of Lesion: SKIN: PAPILLOMA, Dose [Carcinogen]: 200 NMOL IN 0.2 ML ACETONE ONCE 0.5 HR AFTER AGENT TREATMENT, Promoter: 12-O-TETRADECANOYLPHORBOL-13-ACETATE, 16561-29-8): 90%, 98%, -9%, not significant | tumour outcome (control, treated, inhibition, significance) (Carcinogen: BENZO[A]PYRENE, 50-32-8, Dose [Inhibitor]: 0, 240 MG/KG OF DIET FOR 6 WK (STUDY DURATION: 9 WK), Route [Inhibitor]: ORAL, Species: MOUSE, Strain/Sex: NIGP(S)/FEMALE, Target Tissue: Type of Lesion: LUNG: ADENOMA, Dose [Carcinogen]: 0.5 MG INJECTED IN THE SCAPULAR REGION OF NEWBORN MICE ONCE, Promoter: NONE USED): 35%, 55%, -57%, not calculated | tumour outcome (control, treated, inhibition, significance) (Carcinogen: BENZO[A]PYRENE, 50-32-8, Dose [Inhibitor]: 0, 240 MG/KG OF DIET FOR 6 WK (STUDY DURATION: 9 WK), Route [Inhibitor]: ORAL, Species: MOUSE, Strain/Sex: NIGP(S)/MALE, Target Tissue: Type of Lesion: LUNG: ADENOMA, Dose [Carcinogen]: 0.5 MG INJECTED IN THE SCAPULAR REGION OF NEWBORN MICE ONCE, Promoter: NONE USED): 48%, 42%, 13%, not calculated | tumour outcome (control, treated, inhibition, significance) (Carcinogen: N,N-DIMETHYLNITROSAMINE, 62-75-9, Dose [Inhibitor]: 240 MG/KG OF DIET DAILY FOR 3 WK STARTING 2 D AFTER CARCINOGEN TREATMENT AT 6 WK OF AGE AND THEN OBSERVED UNTIL DEATH (S, Route [Inhibitor]: ORAL, Species: RAT, Strain/Sex: WISTAR/FEMALE, Target Tissue: Type of Lesion: KIDNEY: MESENCHYMAL TUMOR, Dose [Carcinogen]: 40 MG/KG BW ONCE, Promoter: NONE USED): 22/27 (82%), 27/32 (84%), -2%, not significant | tumour outcome (control, treated, inhibition, significance) (Carcinogen: N,N-DIMETHYLNITROSAMINE, 62-75-9, Dose [Inhibitor]: 240 MG/KG OF DIET DAILY FOR 3 WK STARTING 2 D AFTER CARCINOGEN TREATMENT AT 6 WKOF AGE AND THEN OBSERVED UNTIL DEATH (ST, Route [Inhibitor]: ORAL, Species: RAT, Strain/Sex: WISTAR/FEMALE, Target Tissue: Type of Lesion: KIDNEY: EPITHELIAL TUMOR (ADENOMA, ADENOCARCINOMA), Dose [Carcinogen]: 40 MG/KG BW ONCE, Promoter: NONE USED): 13/27 (48%), 17/32 (53%), -10%, not significant | tumour outcome (control, treated, inhibition, significance) (Carcinogen: N,N-DIMETHYLNITROSAMINE, 62-75-9, Dose [Inhibitor]: 240 MG/KG OF DIET DAILY FOR 10 WK STARTING 2 D AFTER CARCINOGEN TREATMENT AT 6 WK OF AGE AND THEN OBSERVED UNTIL DEATH (, Route [Inhibitor]: ORAL, Species: RAT, Strain/Sex: WISTAR/FEMALE, Target Tissue: Type of Lesion: KIDNEY: EPITHELIAL TUMOR (ADENOMA, ADENOCARCINOMA), Dose [Carcinogen]: 40 MG/KG BW ONCE, Promoter: NONE USED): 13/27 (48%), 11/29 (38%), 21%, not significant | tumour outcome (control, treated, inhibition, significance) (Carcinogen: N,N-DIMETHYLNITROSAMINE, 62-75-9, Dose [Inhibitor]: 240 MG/KG OF DIET DAILY FOR 26 WK STARTING 2 D AFTER CARCINOGEN TREATMENT AT 6 WK OF AGE AND THEN OBSERVED UNTIL DEATH (, Route [Inhibitor]: ORAL, Species: RAT, Strain/Sex: WISTAR/FEMALE, Target Tissue: Type of Lesion: KIDNEY: EPITHELIAL TUMOR (ADENOMA, ADENOCARCINOMA), Dose [Carcinogen]: 40 MG/KG BW ONCE, Promoter: NONE USED): 13/27 (48%), 11/21 (52%), -8%, not significant | tumour outcome (control, treated, inhibition, significance) (Carcinogen: N,N-DIMETHYLNITROSAMINE, 62-75-9, Dose [Inhibitor]: 240 MG/KG OF DIET DAILY FOR 26 WK STARTING 2 D AFTER CARCINOGEN TREATMENT AT 6 WK OF AGE AND THEN OBSERVED UNTIL DEATH (, Route [Inhibitor]: ORAL, Species: RAT, Strain/Sex: WISTAR/FEMALE, Target Tissue: Type of Lesion: KIDNEY: MESENCHYMAL TUMOR, Dose [Carcinogen]: 40 MG/KG BW ONCE, Promoter: NONE USED): 22/27 (82%), 21/21 (100%), -22%, not significant | tumour outcome (control, treated, inhibition, significance) (Carcinogen: N-(4-(5-NITRO-2-FURYL)-2-THIAZOLYL)FORMAMIDE, 24554-26-5, Dose [Inhibitor]: 120 MG/KG DIET DAILY STARTING 1 WK AFTER COMPLETION OF CARCINOGEN TREATMENT AND CONTINUING UNTIL END OF STUDY (STUDY DUR, Route [Inhibitor]: ORAL, Species: RAT, Strain/Sex: F344/FEMALE, Target Tissue: Type of Lesion: URINARY BLADDER: CARCINOMA, Dose [Carcinogen]: 2 G/KG DIET DAILY FOR 10 WK, Promoter: NONE USED): 36/100 (36%), 42/100 (42%), -17%, p 0.135
